The values below come from patent US9371290B2, “Pyridazinone compounds” (BIOTIE THERAPIES CORPORATION, priority 2011, dated 2016).

In one data set the test system is Total MAO. The data set is described as follows: Total rat MAO activity (rat liver mitochondrial preparation, tyramine substrate). It is filed as biochemical. The protocol:
Rat MAO was prepared from rat liver by rinsing the 1 g liver sample several times in 14 ml KCl-EDTA-solution to remove all blood. Then 1 g liver sample was homogenized in 4 ml ice-cold potassium phosphate buffer (0.1 M, pH 7.4) with an Ultra-Turrax homogenizer (setting 11 000 rpm, 4×10 s). After centrifugation at 500 g for 10 min at 4° C. the supernatant was carefully withdrawn and was centrifuged at 12 300 g for 15 min at 4° C. The supernatant was discharged and sedimented mitochondria were resuspended in 4 ml fresh phosphate buffer and centrifuged as previously. The mitochondria were suspended in 4 ml phosphate buffer and homogenized with an Ultra-Turrax homogenizer (setting 11 000 rpm, 2×10 s). Mitochondrial preparate was aliquoted and stored at −70° C. Total MAO activity was measured in a similar way as for VAP-1 SSAO except that SSAO enzyme was replaced by MAO enzyme. To each well was added a predetermined amount of inhibitor if required. The amount of inhibitor varied in each assay but was generally at a final concentration of between 10 nM and 800 μM. Controls lacked inhibitor. The inhibitor was in a total volume of 20 μl in water. The following reagents were then added. 0.2 M potassium phosphate buffer pH 7.6 for a total reaction volume of 200 μl, 50 μl of freshly made chromogenic solution (as above) and 50 μl of MAO preparation (or needed amount of MAO). The plates were incubated for 30 min at 37° C. and the background absorbance measured at 490 nm using a Wallac Victor II multilabel counter. To initiate the enzyme reaction 20 μl of 5 mM tyramine (final concentration 0.5 mM) was added and the plate incubated for 1 h at 37° C. The increase in absorbance, reflecting MAO activity, was measured at 490 nm. Inhibition was presented as percent inhibition compared to control after correcting for background absorbance and IC50 values calculated using GraphPad Prism. Clorgyline and pargyline (inhibitors of MAO-A and -B respectively) at 0.5 μM were added to some wells as positive controls for MAO inhibition.

In data set [1] the target is T1, Recombinant human VAP-1 SSAO (Homo sapiens, UniProt Q16853).
T1 construct: made in house; host or cells: Chinese Hamster Ovary (CHO) cells; clarified NP40 cell lysate used directly
T1 sequence (Q16853 1-763): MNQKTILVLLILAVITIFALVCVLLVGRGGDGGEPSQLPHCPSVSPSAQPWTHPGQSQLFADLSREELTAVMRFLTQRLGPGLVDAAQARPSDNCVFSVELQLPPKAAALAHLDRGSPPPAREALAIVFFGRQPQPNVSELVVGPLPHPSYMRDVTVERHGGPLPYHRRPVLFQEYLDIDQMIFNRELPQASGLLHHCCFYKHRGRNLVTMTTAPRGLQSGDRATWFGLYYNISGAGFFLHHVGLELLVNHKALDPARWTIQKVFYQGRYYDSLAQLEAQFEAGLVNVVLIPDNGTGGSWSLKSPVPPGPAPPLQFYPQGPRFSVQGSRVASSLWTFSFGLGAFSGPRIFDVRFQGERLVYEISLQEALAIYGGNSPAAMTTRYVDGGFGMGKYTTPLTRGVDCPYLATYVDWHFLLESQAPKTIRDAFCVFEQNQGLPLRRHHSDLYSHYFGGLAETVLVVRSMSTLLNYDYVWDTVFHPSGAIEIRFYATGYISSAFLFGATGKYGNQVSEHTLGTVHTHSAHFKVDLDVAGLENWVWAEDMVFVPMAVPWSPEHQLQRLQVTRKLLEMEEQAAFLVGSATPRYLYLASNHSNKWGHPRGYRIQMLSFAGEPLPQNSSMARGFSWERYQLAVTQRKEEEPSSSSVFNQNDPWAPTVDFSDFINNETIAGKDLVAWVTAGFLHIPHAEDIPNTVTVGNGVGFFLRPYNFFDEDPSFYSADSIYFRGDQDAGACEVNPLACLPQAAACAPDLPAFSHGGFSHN
The data set is described as follows: In vitro inhibition of VAP-1 SSAO activity (coupled colorimetric method, benzylamine substrate). It is filed as biochemical. Particulars: CHO cell lysate, 1 mM benzylamine, read-out: VAP-1 SSAO Inhibitory activity IC50. The protocol:
VAP-1 SSAO activity was measured using the coupled colorimetric method essentially as described for monoamine oxidase and related enzymes (Holt, A., et al., Anal. Biochem. 244:384-392 (1997)). Recombinant human VAP-1 SSAO expressed in Chinese Hamster Ovary (CHO) cells was used as a source of VAP-1 SSAO for activity measurements. Native CHO cells have negligible SSAO activity. These cells and their culture have previously been described (Smith, D. J., et al., J. Exp. Med. 188:17-27 (1998)). A cell lysate was prepared by suspending approximately 3.6×10^8 cells in 25 ml lysis buffer (150 mM NaCl, 10 mM Tris-Base pH 7.2, 1.5 mM MgCl2, 1% NP40) and incubating at 4° C. overnight on a rotating table. The lysate was clarified by centrifugation at 18 000 g for 5 min at room temperature and the supernatant used directly in the assay. The VAP-1 SSAO assay was performed in 96 well microtitre plates as follows. To each well was added a predetermined amount of inhibitor if required. The amount of inhibitor varied in each assay but was generally at a final concentration of between 1 nM and 50 μM. Controls lacked inhibitor. The inhibitor was in a total volume of 20 μl in water. The following reagents were then added. 0.2 M potassium phosphate buffer pH 7.6 to a total reaction volume of 200 μl, 50 μl of freshly made chromogenic solution containing 1 mM vanillic acid, 500 μM 4-aminoantipyrine and 8 U/ml horseradish peroxidase and an amount of CHO cell lysate containing VAP-1 SSAO that caused a change of 0.6 A490 per h. This was within the linear response range of the assay. The plates were incubated for 30 min at 37° C. and the background absorbance measured at 490 nm using a Wallac Victor II multilabel counter. To initiate the enzyme reaction 20 μl 10 mM benzylamine (final concentration=1 mM) was added and the plate incubated for 1 h at 37° C. The increase in absorbance, reflecting VAP-1 SSAO activity, was measured at 490 nm. Inhibition was presented as percent inhibition compared to control after correcting for background absorbance and IC50 values calculated using GraphPad Prism.

As for `O=c1cc(NCc2ccccc2)c(-c2nc[nH]n2)nn1-c1ccccc1` [Compound 42, 5-benzylamino-2-phenyl-6-(1H-1,2,4-triazol-3-yl)-3(2H)-pyridazinone], the melting point lay in the range of 192 to 193 °C. Besides, the “Total MAO Inhibitory activity (%)” value in the data set with Total MAO (at 100 μM) came to 2%. Further, in data set [1], the IC50 was 720 nM.
In turn, `O=c1cc(Nc2ccc(N3CCN(Cc4ccccc4)CC3)cc2)c(-c2nc[nH]n2)nn1-c1ccc(Cl)cc1` [Compound 77] had a melting point of 248 to 251 °C. The “Total MAO Inhibitory activity (%)” value in the data set with Total MAO (at 50 μM) was 24%. The IC50 in data set [1] is 350 nM.
The molecule `O=c1cc(Nc2cccnc2)c(-c2nc[nH]n2)nn1-c1ccccc1` [Compound 52] returned a melting point of 172 to 174 °C. Further, the “Total MAO Inhibitory activity (%)” value in the data set with Total MAO (at 100 μM) worked out at 9%. Also, the 50% inhibitory concentration (IC50) in data set [1] amounted to 3500 nM.
The molecule `O=c1cc(Nc2ccc(N3CCCCC3)cc2)c(-c2nc[nH]n2)nn1-c1ccc(Cl)cc1` [Compound 62] displayed a melting point of 240 to 242 °C. For the same molecule, the “Total MAO Inhibitory activity (%)” value in the data set with Total MAO (at 250 μM) is listed as 21%. Further, in data set [1], the half-inhibitory concentration (IC50) is 280 nM.
`C=CCOc1cc(=O)n(-c2ccc(Cl)cc2)nc1-c1nc[nH]n1` [Compound 73] registered a melting point of 172 to 175 °C. Further, the “Total MAO Inhibitory activity (%)” value in the data set on Total MAO (at 50 μM) worked out at 0%. Moreover, the 50% inhibitory concentration (IC50) in data set [1] stood at 2200 nM.
For `COc1ccc(Nc2cc(=O)n(-c3ccc(Cl)cc3)nc2-c2nc[nH]n2)cc1` [Compound 57, 2-(4-chlorophenyl)-5-[(4-methoxyphenyl)amino]-6-(1H-1,2,4-triazol-3-yl)-3(2H)-pyridazinone], the melting point lay in the range of 251 to 252 °C. Moreover, in the data set with Total MAO (at 100 μM), the “Total MAO Inhibitory activity (%)” value amounted to 5%. The IC50 in data set [1] came out at 44 nM.
On to `COc1cc(Nc2cc(=O)n(-c3ccc(Cl)cc3)nc2-c2nc[nH]n2)cc(OC)c1OC` [Compound 61], for which the melting point lay in the range of 238 to 241 °C. Also, the “Total MAO Inhibitory activity (%)” value with Total MAO (at 250 μM) is reported as 17%. The half-inhibitory concentration (IC50) in data set [1] was determined as 300 nM.
As to `CN(C)c1ccc(Nc2cc(=O)n(-c3ccc(Cl)cc3)nc2-c2nc[nH]n2)cc1` [Compound 65], the melting point lay within 276 to 279 °C. The “Total MAO Inhibitory activity (%)” value with Total MAO (at 250 μM) amounted to 8%. Also, in data set [1], the IC50 amounted to 63 nM.

For orientation: melting point means the temperature, or range, at which the solid turns liquid. As a reminder, the IC50 is the concentration that gives 50% inhibition.
